The values that follow come from patent US11254688B2 (Boehringer Ingelheim International GmbH, priority 2018, dated 2022).

One may read the IC50 as the concentration at which inhibition is half-maximal. A low value points to higher potency.

The test has as its target T1, hGOAT (Homo sapiens, UniProt Q96T53).
T1 construct: expressed in transfected cells; host or cells: HEK293 (Hek293 hGOAT/PPGhrl Clone #1B8)
T1 sequence (Q96T53 1-435): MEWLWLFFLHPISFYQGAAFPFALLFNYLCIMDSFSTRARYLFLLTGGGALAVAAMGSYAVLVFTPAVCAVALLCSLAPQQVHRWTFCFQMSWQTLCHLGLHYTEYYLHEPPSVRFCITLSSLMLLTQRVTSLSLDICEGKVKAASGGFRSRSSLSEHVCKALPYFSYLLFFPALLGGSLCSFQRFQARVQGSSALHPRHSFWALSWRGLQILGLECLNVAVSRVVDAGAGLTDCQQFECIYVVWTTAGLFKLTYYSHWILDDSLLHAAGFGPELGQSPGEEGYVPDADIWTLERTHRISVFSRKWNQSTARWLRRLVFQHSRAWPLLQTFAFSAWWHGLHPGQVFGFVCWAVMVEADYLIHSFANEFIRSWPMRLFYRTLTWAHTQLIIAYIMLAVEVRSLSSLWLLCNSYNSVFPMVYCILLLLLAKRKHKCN
The test is described as follows: Determination of hGOAT activity in HEK293 cells after incubation with test compound (acyl-ghrelin ELISA). It counts as cell-based. The settings on record: HEK293 cells stably transfected with preproghrelin and human GOAT; octanoate-BSA 100 μM; 5 hours incubation; acyl-ghrelin in medium by ELISA; 8 compound concentrations. On the technique in general: An ELISA detects its analyte on a solid surface through an enzyme-linked reagent.
As for `Cc1nc2nonc2c(N)c1Cc1ccc(-c2ccsc2C#N)nc1` [Compound 12.3, 3-[5-(7-Amino-5-methyl-[1,2,5]oxadiazolo[3,4-b]pyridin-6-ylmethyl)-pyridin-2-yl]-thiophene-2-carbonitrile], half-maximal inhibition (IC50) was put at 0.509 nM.

The molecule `Cc1nc2nonc2c(N)c1Cc1ccc(C(=O)NCc2cnn(C)c2)cc1` [Compound 14.11, 4-({7-Amino-5-methyl-[1,2,5]oxadiazolo[3,4-b]pyridin-6-yl}methyl)-N-[(1-methyl-1H-pyrazol-4-yl)methyl]benzamide] had an IC50 of 4.16 nM.

For the molecule `Cc1nc2nonc2c(N)c1Cc1ccc(Br)cc1` [Compound 1.1, 6-[(4-Bromophenyl)methyl]-5-methyl-[1,2,5]oxadiazolo[3,4-b]pyridin-7-amine], the IC50 was found to be 0.225 nM.

Consider `Cc1nc2nonc2c(N)c1Cc1ccc(-c2c(C)noc2C)nc1` [Compound 12.6, 6-{[6-(3,5-Dimethyl-1,2-oxazol-4-yl)pyridin-3-yl]methyl}-5-methyl-[1,2,5]oxadiazolo[3,4-b]pyridin-7-amine], for which half-maximal inhibition (IC50) required 0.402 nM.

On to `Cc1nc2nonc2c(N)c1Cc1ccc(C2(C#N)CC(F)(F)C2)nc1` [Compound 4.28, 1-[5-({7-Amino-5-methyl-[1,2,5]oxadiazolo[3,4-b]Pyridin-6-yl}methyl)pyridin-2-yl]-3,3-difluorocyclobutane-1-carbonitrile], for which the IC50 stood at 1.5 nM.

`Cc1nc2nonc2c(N)c1Cc1ccc(C#N)c(C#N)c1` [Compound 4.59, 4-({7-Amino-5-methyl-[1,2,5]oxadiazolo[3,4-b]pyridin-6-yl}methyl)benzene-1,2-dicarbonitrile] yielded a half-maximal inhibitory concentration (IC50) of 2.51 nM. This IC50 lies about 1.7-fold higher than the previous one.

Molecule `Cc1nc2nonc2c(N)c1Cc1ccc(C(F)(F)F)c(C#N)c1` [Compound 4.57, 5-({7-Amino-5-methyl-[1,2,5]oxadiazolo[3,4-b]pyridin-6-yl}methyl)-2-(trifluoromethyl)benzonitrile] showed an IC50 of 0.121 nM.

As for `Cc1nc2nonc2c(N)c1Cc1ccc(OC(F)(F)F)c(-c2cc[nH]n2)c1` [Compound 12.2, 5-Methyl-6-[3-(1H-pyrazol-3-yl)-4-trifluoromethoxy-benzyl]-[1,2,5]oxadiazolo[3,4-b]pyridin-7-ylamine], the IC50 was 0.043 nM.

As for `Cc1nc2nonc2c(N)c1Cc1ccc(C(C)(C)C)nc1` [Compound 4.7, 6-[(6-tert-butylpyridine-3-yl)methyl]-5-methyl-[1,2,5]oxadiazolo[3,4-b]pyridin-7-amine], inhibition was half-maximal at 0.124 nM (IC50).

`Cc1nc2nonc2c(N)c1Cc1ccc(I)cc1` [Compound 1.4, 6-[(4-Iodophenyl)methyl]-5-methyl-[1,2,5]oxadiazolo[3,4-b]pyridin-7-amine] had an IC50 of 0.127 nM.

For the molecule `Cc1nc2nonc2c(N)c1Cc1ccc(C(F)(F)F)cc1` [Compound 1.3, 5-Methyl-6-{[4-(trifluoromethyl)phenyl]methyl}-[1,2,5]oxadiazolo[3,4-b]pyridin-7-amine], half-maximal inhibition (IC50) required 0.294 nM.
